# Assay results as given in PubChem BioAssay (NCI).
#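 The compound was tested at five concentrations on cells cultured in 96-well plates, with a 48-hour exposure period. Abbreviation: GI50, concentration required for 50% inhibition of growth. TGI is the concentration that stops growth completely.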
# How the values were obtained:
# Assay in all cases: inhibition of tumour cell growth, NCI panel, 48 h
# HT29 colon = test system: HT29 colon
# SNB-75 CNS = test system: SNB-75 CNS
# 786-0 renal = test system: 786-0 renal
# HL-60(TB) leukemia = test system: HL-60(TB) leukemia
# HCT-15 colon = test system: HCT-15 colon
# A549 NSCLC = test system: A549 NSCLC
# UACC-257 melanoma = test system: UACC-257 melanoma
# SK-MEL-5 melanoma = test system: SK-MEL-5 melanoma
# CCRF-CEM leukemia = test system: CCRF-CEM leukemia
# MCF7 breast = test system: MCF7 breast
SMILES,TGI (HT29 colon) [µM],TGI (SNB-75 CNS) [µM],TGI (786-0 renal) [µM],TGI (HL-60(TB) leukemia) [µM],TGI (HCT-15 colon) [µM],TGI (A549 NSCLC) [µM],TGI (UACC-257 melanoma) [µM],TGI (SK-MEL-5 melanoma) [µM],TGI (CCRF-CEM leukemia) [µM],GI50 (HT29 colon) [µM],GI50 (SK-MEL-5 melanoma) [µM],GI50 (MCF7 breast) [µM],TGI (MCF7 breast) [µM],GI50 (SNB-75 CNS) [µM],GI50 (786-0 renal) [µM],GI50 (HCT-15 colon) [µM],GI50 (A549 NSCLC) [µM],GI50 (UACC-257 melanoma) [µM],GI50 (HL-60(TB) leukemia) [µM],GI50 (CCRF-CEM leukemia) [µM]
COc1ccc2nc3cccc(C(=O)NCCN(C)C)c3nc2c1,6.63,21.6,> 22.2,4.89,6.15,> 100,7.74,,,,,,,,,,,,,
Nc1nc(N)c(-c2ccccc2)c(CCC(=O)Nc2ccc(Cl)cc2)n1,> 100,> 100,> 100,> 100,> 100,> 100,> 100,> 100,> 100,,,,,,,,,,,
CCOC(=O)/N=c1/nc(N(C)C)ss1,> 100,> 100,> 100,> 100,> 100,> 100,> 100,> 100,> 100,,,,,,,,,,,
NCP(=O)(O)OCC(=O)O,> 100,> 100,> 100,> 100,> 100,> 100,> 100,> 100,> 100,,,,,,,,,,,
NS(=O)(=O)c1ccc(NC(=O)COC(=O)c2cccc3c(=O)c4ccccc4[nH]c23)cc1,> 100,38.5,45.3,> 100,> 100,> 100,> 100,> 100,> 89.5,,,,,,,,,,,
N#Cc1cccc(OCc2ccccc2COc2cccc(C#N)c2)c1,> 100,70.4,27.7,,> 100,> 100,> 100,> 100,,> 100,43.4,50.3,> 100,29.7,12.3,> 100,42.5,> 100,,
COC(=O)C1CC(C(=O)OC)c2nc3cc(C)c(C)cc3nc21 (stereo unspecified),> 100,> 100,> 100,> 100,> 100,> 100,> 100,> 100,> 100,,,,,,,,,,,
Cn1cc(NC(=O)c2cc(NC(=O)CCCCCCC(=O)Nc3cc(C(=O)Nc4cc(C(=O)NCCC(=N)N)n(C)c4)n(C)c3)cn2C)cc1C(=O)NCCC(=N)N,> 100,38.6,33.8,8.75,> 100,54.4,5.98,3.89,> 100,,,,,,,,,,,
COc1ccc2c(c1)OCCC1=C2SCC2(C)CCN=C12 (stereo unspecified),> 100,> 100,> 100,> 100,,> 100,,> 100,> 100,,,,,,,,,,,
CC1=C(C(=O)Nc2ccccc2)C(c2ccc(C(C)C)cc2)C(C(=O)Nc2ccccc2)=C(C)N1,29.9,99.3,30.2,30.7,61.4,> 100,,27,75.2,,,,,,,,,,,
Nc1ccc(C(=O)N/C(=C\c2cccc([N+](=O)[O-])c2)c2nc3c4c(ccc3[nH]2)C(=O)c2ccccc2C4=O)cc1,> 100,17.8,> 100,,> 100,> 100,> 100,> 100,> 100,,,,,,,,,,,
Cn1ccnc1C[N-]Cc1nccn1C.O=[N+]([O-])[O-].O=[N+]([O-])[O-].[Cu+2],> 100,> 100,> 100,> 100,,> 100,,> 100,> 100,> 100,> 100,,,> 100,> 100,,> 100,,> 100,> 100
C1C[OH+]CC[OH+]CC[OH+]CC[OH+]CC[OH+]CC[OH+]1.[Cl-].[Nb+5],> 100,> 100,> 100,> 100,> 100,> 100,> 100,> 100,,> 100,> 100,,,39.6,> 100,> 100,> 100,> 100,> 100,
CCOC(=O)/C(C#N)=C/Nc1ccc(-c2nc3ccccc3[nH]2)cc1,,56.7,64.7,97.3,> 100,> 100,> 100,> 100,,,28.5,,,24.2,27.2,34.1,52.7,62.1,40.5,
CC(C)(C)OC(=O)N1N=NC2C3OC(CC3=O)C21 (stereo unspecified),> 100,> 100,> 100,,> 100,> 100,> 100,,> 100,,,,,,,,,,,
